Results from patent publication US20260109732A1, “LIPID AMINES” (ModernaTX, Inc., priority 2021, published 2026).
Where a name gives a salt, the structure may show the parent alone.

Legend:
[1] = Diameter and PDI from DLS measurements of mRNA nanoparticles with lipid amines; assay type: physicochemical
In short: (§1)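 Ionizable lipid nanoparticles (IL1:DSPC:cholesterol:PEG-DMG-2K) formed by vortex mixing at pH 4, loaded with luciferase or CFTR mRNA at N:P 4.93, neutralized with TRIS pH 8.12, then modified with lipid amine SA50 at pH 7.5. Particle diameter and PDI read by DLS; mRNA encapsulation by Ribogreen assay.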

[2] = Encapsulation of mRNA nanoparticles with lipid amines using Ribogreen assay; assay type: physicochemical
In short: as §1

[3] = tested on: HeLa cells; assay: Luciferase Protein Expression Assay in HeLa Cells; assay type: cell-based, Human; conditions: LNPs encapsulating Luciferase mRNA, 25 ng per well, N=4 wells; 5 h serum-free then 24 h; ONE-Glo
In short: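 HeLa cells received LNPs carrying luciferase mRNA (25 ng per well) or PBS in serum-free MEM for 5 h, then complete MEM for a further 24 h. Luciferase then read by ONE-Glo luminescence after lysis and reported as average RLU of 4 replicate wells.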

[4] = tested on: HeLa cells; assay: CFTR Protein Expression Assay in HeLa Cells; assay type: cell-based, Human; conditions: LNPs encapsulating CFTR mRNA, N=4 wells; 5 h serum-free then 24 h; immunofluorescence vs PBS control
In short: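 HeLa cells dosed with CFTR mRNA LNPs (70 mM NaCl final buffer matrix) in serum-free MEM for 5 h, then complete MEM for 24 h. Fixed cells immunostained with anti-CFTR monoclonal and Alexa 488 secondary, imaged confocally; CFTR intensity per cell expressed as fold-change versus PBS buffer control, N=4 wells.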

[5] = CFTR mRNA nanoparticle with lipid amine
[6] = Luciferase mRNA nanoparticle modified with lipid amine

| SMILES | Diameter (nm) [1, 5] | PDI [1, 5] | Diameter (nm) [1, 6] | PDI [1, 6] | % Encapsulation (Ribogreen) [2, 5] | % Encapsulation (Ribogreen) [2, 6] | Average Relative Light Units ± Standard Deviation [3] | Average fold-change in CFTR signal intensity per cell compared to buffer control ± standard deviation [4] |
| --- | --- | --- | --- | --- | --- | --- | --- | --- |
| CC[C@H](CC[C@@H](C)[C@H]1CC[C@H]2[C@@H]3CC=C4C[C@@H](OC(=O)CCCC(=O)N(CCCCCCCC(C)(C)N)CCC(C)(C)N)CC[C@]4(C)[C@H]3CC[C@]12C)C(C)C [SA155, (3S,8S,9S,10R,13R,14S,17R)-17-((2R,5R)-5-ethyl-6-methylheptan-2-yl)-10,13-dimethyl-2,3,4,7,8,9,10,11,12,13,14,15,16,17-tetradecahydro-1H-cyclopenta[a]phenanthren-3-yl 5-((3-amino-3-methylbutyl)(8-amino-8-methylnonyl)amino)-5-oxopentanoate dihydrochloride] | 71.1 nm | 0.13 | 73 nm | 0.11 | 99.4% | 98.9% | 31922.9 ± 8053.8 Relative Light Units | 12.2 ± 1.0 fold-change |
| CC[C@H](CC[C@@H](C)[C@H]1CC[C@H]2[C@@H]3CC=C4C[C@@H](OC(=O)CCCC(=O)N(CCCCNCCC(C)(C)N)CCC(C)(C)N)CC[C@]4(C)[C@H]3CC[C@]12C)C(C)C.Cl.Cl.Cl [SA137, (3S,8S,9S,10R,13R,14S,17R)-17-((2R,5R)-5-ethyl-6-methylheptan-2-yl)-10,13-dimethyl-2,3,4,7,8,9,10,11,12,13,14,15,16,17-tetradecahydro-1H-cyclopenta[a]phenanthren-3-yl 5-((3-amino-3-methylbutyl)(4-((3-amino-3-methylbutyl)amino)butyl)amino)-5-oxopentanoate trihydrochloride] | 76.3 nm | 0.13 | 79 nm | 0.20 | 98.3% | 99.6% | 15239.8 ± 6248.1 Relative Light Units | 14.0 ± 0.8 fold-change |
| CC[C@H](CC[C@@H](C)[C@H]1CC[C@H]2[C@@H]3CC=C4C[C@@H](OC(=O)N(CCCCCCCC(C)N)CCC(C)N)CC[C@]4(C)[C@H]3CC[C@]12C)C(C)C (stereo partly drawn) [SA144, (3S,8S,9S,10R,13R,14S,17R)-17-((2R,5R)-5-ethyl-6-methylheptan-2-yl)-10,13-dimethyl-2,3,4,7,8,9,10,11,12,13,14,15,16,17-tetradecahydro-1H-cyclopenta[a]phenanthren-3-yl (3-aminobutyl)(8-aminononyl)carbamate dihydrochloride] | 69.3 nm | 0.12 | 71 nm | 0.15 | 98.8% | 99.2% | 33357.5 ± 5288.8 Relative Light Units | 17.9 ± 2.1 fold-change |
| CCC(N)(CC)CCNCCCCN(CCC(N)(CC)CC)C(=O)CCCC(=O)O[C@H]1CC[C@@]2(C)C(=CC[C@H]3[C@@H]4CC[C@H]([C@H](C)CCCC(C)C)[C@@]4(C)CC[C@@H]32)C1 [SA185, (3S,8S,9S,10R,13R,14S,17R)-10,13-dimethyl-17-((R)-6-methylheptan-2-yl)-2,3,4,7,8,9,10,11,12,13,14,15,16,17-tetradecahydro-1H-cyclopenta[a]phenanthren-3-yl 5-((3-amino-3-ethylpentyl)(4-((3-amino-3-ethylpentyl)amino)butyl)amino)-5-oxopentanoate trihydrochloride] | 73 nm | 0.16 | 75 nm | 0.16 | 98.6% | 99.4% | 36168.3 ± 7638.9 Relative Light Units | 14.2 ± 1.0 fold-change |
